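GI50 marks 50% less growth. TGI denotes the concentration required for complete inhibition of growth.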
Experiments:
Assay in all cases: inhibition of tumour cell growth, NCI panel, 384-well format
NCI-H522 lung = test system: NCI-H522 lung
HCT-116 colon = test system: HCT-116 colon
M14 melanoma = test system: M14 melanoma
UO-31 renal = test system: UO-31 renal
MDA-MB-468 breast = test system: MDA-MB-468 breast
HS 578T breast = test system: HS 578T breast
OVCAR-3 ovarian = test system: OVCAR-3 ovarian
HL-60(TB) leukemia = test system: HL-60(TB) leukemia
ACHN renal = test system: ACHN renal
HOP-92 NSCLC = test system: HOP-92 NSCLC
CCRF-CEM leukemia = test system: CCRF-CEM leukemia
HCT-15 colon = test system: HCT-15 colon
RXF 393 renal = test system: RXF 393 renal
EKVX NSCLC = test system: EKVX NSCLC
MDA-MB-231 breast = test system: MDA-MB-231 breast
NCI-H460 NSCLC = test system: NCI-H460 NSCLC
T-47D breast = test system: T-47D breast
SK-MEL-2 melanoma = test system: SK-MEL-2 melanoma
HOP-62 NSCLC = test system: HOP-62 NSCLC
SF-268 CNS = test system: SF-268 CNS
NCI/ADR-RES ovarian = test system: NCI/ADR-RES ovarian
PC-3 prostate = test system: PC-3 prostate
SK-OV-3 ovarian = test system: SK-OV-3 ovarian
BT-549 breast = test system: BT-549 breast
SF-539 CNS = test system: SF-539 CNS
SW-620 colon = test system: SW-620 colon
KM12 colon = test system: KM12 colon
MALME-3M melanoma = test system: MALME-3M melanoma
HT29 colon = test system: HT29 colon
A549 NSCLC = test system: A549 NSCLC
DU-145 prostate = test system: DU-145 prostate
RPMI-8226 leukemia = test system: RPMI-8226 leukemia
OVCAR-4 ovarian = test system: OVCAR-4 ovarian
786-0 renal = test system: 786-0 renal
MOLT-4 leukemia = test system: MOLT-4 leukemia
HCC-2998 colon = test system: HCC-2998 colon
NCI-H226 lung = test system: NCI-H226 lung
SF-295 CNS = test system: SF-295 CNS
SK-MEL-28 melanoma = test system: SK-MEL-28 melanoma
CAKI-1 renal = test system: CAKI-1 renal
SN12C renal = test system: SN12C renal
SNB-75 CNS = test system: SNB-75 CNS
NCI-H23 lung = test system: NCI-H23 lung
SNB-19 CNS = test system: SNB-19 CNS
LOX IMVI melanoma = test system: LOX IMVI melanoma
OVCAR-8 ovarian = test system: OVCAR-8 ovarian
MCF7 breast = test system: MCF7 breast

Q: For `CC(=O)N1CCC(Nc2cc(C(=O)NC[C@H](O)CN3CCc4ccccc4C3)ncn2)CC1`, which GI50 (NCI-H522 lung) is on record?
A: > 100 µM

Q: And the TGI (NCI-H522 lung)?
A: > 100 µM

Q: And the GI50 (HCT-116 colon)?
A: > 100 µM

Q: What about the TGI (HCT-116 colon) of the same compound?
A: > 100 µM

Q: And the GI50 (M14 melanoma)?
A: > 100 µM

Q: What about the TGI (M14 melanoma) of the same compound?
A: > 100 µM

Q: And the GI50 (UO-31 renal)?
A: > 100 µM

Q: What about the TGI (UO-31 renal) of the same compound?
A: > 100 µM

Q: What about the GI50 (MDA-MB-468 breast) of the same compound?
A: 29.5 µM

Q: And the TGI (MDA-MB-468 breast)?
A: > 100 µM

Q: What about the GI50 (HS 578T breast) of the same compound?
A: > 100 µM

Q: And the TGI (HS 578T breast)?
A: > 100 µM

Q: What about the GI50 (OVCAR-3 ovarian) of the same compound?
A: > 100 µM

Q: What about the TGI (OVCAR-3 ovarian) of the same compound?
A: > 100 µM

Q: What about the GI50 (HL-60(TB) leukemia) of the same compound?
A: > 100 µM

Q: And the TGI (HL-60(TB) leukemia)?
A: > 100 µM

Q: What about the GI50 (ACHN renal) of the same compound?
A: > 100 µM

Q: And the TGI (ACHN renal)?
A: > 100 µM

Q: What about the GI50 (HOP-92 NSCLC) of the same compound?
A: > 28.1 µM

Q: And the TGI (HOP-92 NSCLC)?
A: > 100 µM

Q: What about the GI50 (CCRF-CEM leukemia) of the same compound?
A: > 100 µM

Q: And the TGI (CCRF-CEM leukemia)?
A: > 100 µM

Q: And the GI50 (HCT-15 colon)?
A: > 100 µM

Q: And the TGI (HCT-15 colon)?
A: > 100 µM

Q: What about the GI50 (RXF 393 renal) of the same compound?
A: > 100 µM

Q: And the TGI (RXF 393 renal)?
A: > 100 µM

Q: What about the GI50 (EKVX NSCLC) of the same compound?
A: > 100 µM

Q: And the TGI (EKVX NSCLC)?
A: > 100 µM

Q: What about the GI50 (MDA-MB-231 breast) of the same compound?
A: > 100 µM

Q: And the TGI (MDA-MB-231 breast)?
A: > 100 µM

Q: And the GI50 (NCI-H460 NSCLC)?
A: 1.9 µM

Q: What about the TGI (NCI-H460 NSCLC) of the same compound?
A: > 100 µM

Q: What about the GI50 (T-47D breast) of the same compound?
A: 0.658 µM

Q: And the TGI (T-47D breast)?
A: > 100 µM

Q: What about the GI50 (SK-MEL-2 melanoma) of the same compound?
A: > 100 µM

Q: What about the TGI (SK-MEL-2 melanoma) of the same compound?
A: > 100 µM

Q: And the GI50 (HOP-62 NSCLC)?
A: > 100 µM

Q: What about the TGI (HOP-62 NSCLC) of the same compound?
A: > 100 µM

Q: And the GI50 (SF-268 CNS)?
A: > 100 µM

Q: And the TGI (SF-268 CNS)?
A: > 100 µM

Q: And the GI50 (NCI/ADR-RES ovarian)?
A: > 100 µM

Q: And the TGI (NCI/ADR-RES ovarian)?
A: > 100 µM

Q: What about the GI50 (PC-3 prostate) of the same compound?
A: > 100 µM

Q: And the TGI (PC-3 prostate)?
A: > 100 µM

Q: What about the GI50 (SK-OV-3 ovarian) of the same compound?
A: > 100 µM

Q: What about the TGI (SK-OV-3 ovarian) of the same compound?
A: > 100 µM

Q: What about the GI50 (BT-549 breast) of the same compound?
A: > 100 µM

Q: And the TGI (BT-549 breast)?
A: > 100 µM

Q: What about the GI50 (SF-539 CNS) of the same compound?
A: > 100 µM

Q: And the TGI (SF-539 CNS)?
A: > 100 µM

Q: What about the GI50 (SW-620 colon) of the same compound?
A: > 35.6 µM

Q: What about the TGI (SW-620 colon) of the same compound?
A: > 100 µM

Q: And the GI50 (KM12 colon)?
A: > 100 µM

Q: And the TGI (KM12 colon)?
A: > 100 µM

Q: And the GI50 (MALME-3M melanoma)?
A: > 100 µM

Q: What about the TGI (MALME-3M melanoma) of the same compound?
A: > 100 µM

Q: And the GI50 (HT29 colon)?
A: > 100 µM

Q: What about the TGI (HT29 colon) of the same compound?
A: > 100 µM

Q: What about the GI50 (A549 NSCLC) of the same compound?
A: > 100 µM

Q: What about the TGI (A549 NSCLC) of the same compound?
A: > 100 µM

Q: And the GI50 (DU-145 prostate)?
A: > 100 µM

Q: What about the TGI (DU-145 prostate) of the same compound?
A: > 100 µM

Q: And the GI50 (RPMI-8226 leukemia)?
A: 61.6 µM

Q: What about the TGI (RPMI-8226 leukemia) of the same compound?
A: > 100 µM

Q: And the GI50 (OVCAR-4 ovarian)?
A: 4.44 µM

Q: What about the TGI (OVCAR-4 ovarian) of the same compound?
A: > 100 µM

Q: And the GI50 (786-0 renal)?
A: > 100 µM

Q: What about the TGI (786-0 renal) of the same compound?
A: > 100 µM

Q: What about the GI50 (MOLT-4 leukemia) of the same compound?
A: < 0.0138 µM

Q: And the TGI (MOLT-4 leukemia)?
A: 0.0854 µM

Q: What about the GI50 (HCC-2998 colon) of the same compound?
A: > 100 µM

Q: What about the TGI (HCC-2998 colon) of the same compound?
A: > 100 µM

Q: What about the GI50 (NCI-H226 lung) of the same compound?
A: > 100 µM

Q: What about the TGI (NCI-H226 lung) of the same compound?
A: > 100 µM

Q: And the GI50 (SF-295 CNS)?
A: > 100 µM

Q: What about the TGI (SF-295 CNS) of the same compound?
A: > 100 µM

Q: What about the GI50 (SK-MEL-28 melanoma) of the same compound?
A: > 100 µM

Q: What about the TGI (SK-MEL-28 melanoma) of the same compound?
A: > 100 µM

Q: And the GI50 (CAKI-1 renal)?
A: > 100 µM

Q: And the TGI (CAKI-1 renal)?
A: > 100 µM

Q: What about the GI50 (SN12C renal) of the same compound?
A: > 100 µM

Q: And the TGI (SN12C renal)?
A: > 100 µM

Q: And the GI50 (SNB-75 CNS)?
A: > 100 µM

Q: And the TGI (SNB-75 CNS)?
A: > 100 µM

Q: What about the GI50 (NCI-H23 lung) of the same compound?
A: > 100 µM

Q: And the TGI (NCI-H23 lung)?
A: > 100 µM

Q: And the GI50 (SNB-19 CNS)?
A: > 100 µM

Q: And the TGI (SNB-19 CNS)?
A: > 100 µM

Q: What about the GI50 (LOX IMVI melanoma) of the same compound?
A: > 100 µM

Q: What about the TGI (LOX IMVI melanoma) of the same compound?
A: > 100 µM

Q: And the GI50 (OVCAR-8 ovarian)?
A: > 100 µM

Q: What about the TGI (OVCAR-8 ovarian) of the same compound?
A: > 100 µM

Q: What about the GI50 (MCF7 breast) of the same compound?
A: > 36.8 µM

Q: And the TGI (MCF7 breast)?
A: > 100 µM

Source: PubChem BioAssay (NCI)
